{"source": "patent US20250275995A1", "about": "“NICOTINAMIDE RIBOSIDE DOSAGE REGIMEN FOR TREATING PARKINSON'S DISEASE” (VESTLANDETS INNOVASJONSSELSKAP AS (VIS), priority 2022, published 2025)", "assay_type_in_all_cases": "in vivo, human", "key": {"[1]": {"test": "NR-SAFE: clinical laboratory values from blood samples (serum)", "procedure": "Analysis of clinical laboratory values from blood samples was performed by the Department of Medical Biochemistry and Pharmacology (MBF) at Haukeland University Hospital, Bergen, Norway."}, "blood NAD^+ levels": {"system": "blood NAD^+ levels", "test": "NAD-brain pharmacokinetic study: whole blood NAD+ response", "procedure": "The NAD-brain study performs a parallel assessment of NAD replenishment therapy pharmacokinetics in the blood and brain of healthy human subjects and subjects with Parkinson's disease (PD). A total of 10 healthy individuals (5 men and 5 women) and 10 individuals with PD (5 men and 5 women) undergo repeated blood sampling and 31P-MRS brain scans during two 20-day periods, each of which starts with 8 days of daily intake of NR 600 mg×2, or NMN 600 mg×2. The two 20-day period is 14 days apart to allow for washout of the previous compound. Blood is analyzed for NR and NAD-metabolites using HPLC-MS. By this approach, we measured the simultaneous change in NAD-metabolism overtime in blood and brain and establish blood and brain pharmacokinetics for NAD replenishment therapy in humans.\nNR (Niagen®, Chromadex) at a dose of 600 mg×2 daily). NMN (Restorin®, from Seragon Pharmaceutics, or MIB-626 from Metro International Biotech) at a dose of 600 mg×2 daily.\n• At screening, participants are assessed for eligibility, inclusion/exclusion criteria, medical history and concomitant medication is recorded, and informed consent signed. • The NAD-brain study performs a parallel assessment of NAD replenishment therapy pharmacokinetics in the blood and brain of healthy human subjects and subjects with Parkinson's disease (PD). Healthy individuals and individuals with PD undergo repeated blood sampling and 31P-MRS brain scans during two 20-day periods, each of which starts with 8 days of daily intake of NR 600 mg×2, or NMN 600 mg×2 (Table 10). • For each 20-day period the testing (i.e., scanning and blood draw) frequency is shown in Table 10, below. The two 20-day periods are 14 days apart to allow for washout of the previous compound.\nBlood is analyzed for NR and NAD-metabolites using HPLC-MS metabolomics. Snap-frozen whole blood is used for the analysis of NAD^+. Blood is drawn from the participant in EDTA tube (VACUETTE® TUBE 2 ml K2E K2EDTA). The EDTA tube is gently inverted at least 10 times without shaking; 8×200 μl of blood from the EDTA tube is aliquoted into 8×0.5 ml micro tubes; these are closed, and all the micro tubes are immerse simultaneously in liquid nitrogen within 2 min from when blood has started flowing into the EDTA tube; then transferred frozen to −80° C. freezer for storage; stored at −80C in freezer-compatible cardboard or plastic storage boxes; and shipped on dry ice.\nThis is a pharmacokinetic (PK) study where 6 healthy individuals (3 male and 3 female): • 1) Received NR 1200 mg daily (600 mg×2) for 8 days, followed by an additional 11 days follow up, while undergoing serial blood and brain NAD-measurement. • 2) Received NMN 1200 mg daily (600 mg×2) for 8 days, followed by an additional 11 days follow up, while undergoing serial blood and brain NAD-measurement.\nThe individuals were mixed, so that in stage-1 three individuals received NR and three individuals received NMN, then in stage-2 they switched (Cross-over design). There were almost three weeks (20 days) of washout between the last dose of the first compound, and before the first dose of the second compounds."}, "NAD metabolome": {"system": "NAD metabolome", "test": "NADPARK: metabolomics, RNA-sequencing and cytokines in blood, muscle, CSF", "details": "NR 1000 mg daily", "procedure": "A-C: 31P-MRS was performed at baseline (v1) and after 30 days of treatment (v2). A: exemplary data from one subject showing voxel position. Spectra were acquired for each grid position. B (top): average processed spectra from multiple voxels (black) and the model fit (red). B (bottom): the model fit is composed of the convolution of all spectral contributions of a simulated dataset fitted to the experimental data. […] PCr: phosphocreatine. C: comparison of cerebral NAD levels in the placebo (PL) and NR groups at baseline (v1) and visit-2 (v2). […] Individual subjects are indicated by dots. Connecting lines show the change between v1 and v2. The black points and lines show the mean of each group. […] D: FDG-PET data from all subjects in the NR-group, showing the mean NR-Related Pattern (NRRP, top panel), PD-related pattern (PRDP, middle panel), and the overlap of the two (bottom panel). NR partially ameliorates the striatal and thalamic hypermetabolism of PD. E: Between visit changes showing increased NRRP expression in the NR versus the placebo group. The red line indicates mean values before and after the treatment, black lines indicate individuals with a positive NAD response in the MRS analysis, grey lines indicate individuals without an NAD response in the MRS (*p=0.027, permutation test, 1000 iterations). […] G: Metabolomics in PBMCs, muscle, and CSF.\nNR has widespread metabolic and regulatory effects. […] These findings indicate that NR supplementation increases both mitochondrial respiration and proteostasis—two hallmark pathogenic processes involved in PD."}}, "note": "Entries after “also recorded” stand apart in the source; their conditions may differ."}
{"compound": "NC(=O)c1ccc[n+]([C@@H]2O[C@H](CO)[C@@H](O)[C@H]2O)c1", "note": "[NR, nicotinamide riboside]", "values": [{"measurement": "clinical symptoms related to the observed HCy increase", "setting": "[1]; NR 3000 mg daily, 4 weeks", "value": "No participants developed any clinical symptoms"}, {"measurement": "increase in triglycerides, total cholesterol and LDL", "setting": "[1]; NR 3000 mg daily, 4 weeks", "value": "no such effects"}, {"measurement": "serum folic acid, methylmalonic acid and vitamin B12", "setting": "[1]; NR 3000 mg daily, 4 weeks", "value": "remained unchanged"}, {"measurement": "serum triglyceride levels", "setting": "[1]; NR group, 3000 mg daily, 4 weeks", "value": "nominal trend for a reduction in serum triglyceride levels"}, {"measurement": "change in serum HCy at second visit", "setting": "[1]; V2, day 3 of treatment, vs baseline, NR 3000 mg daily", "value": "+2.29±1.72 μmol/L"}, {"measurement": "change in serum HCy after second visit until end of study", "setting": "[1]; V2 to V7, NR 3000 mg daily", "value": "-0.63 ± 1.76", "unit": "µmol/L"}, {"measurement": "serum HCy levels relative to normal range", "setting": "[1]; most participants, NR 3000 mg daily", "value": "remained within normal range"}, {"measurement": "change in serum homocysteine levels, last visit vs baseline", "setting": "[1]; Δ V7−V1, NR 3000 mg daily", "value": "+1.66±0.63 μmol/L"}, {"measurement": "blood NAD^+ levels", "setting": "blood NAD^+ levels; 1200 mg daily (600 mg×2) for 8 days, 6 healthy individuals", "value": "increased in all individuals"}, {"measurement": "blood NAD^+ response, NR compared with NMN", "setting": "blood NAD^+ levels; 1200 mg daily (600 mg×2) for 8 days, cross-over", "value": "stronger than the NMN response"}, {"measurement": "day of maximal NAD levels in the blood", "setting": "blood NAD^+ levels; 1200 mg daily for 8 days, last dose morning of day 8", "value": 9, "unit": "days"}, {"measurement": "time to reach a steady heightened state of NAD-metabolism in blood and brain", "setting": "blood NAD^+ levels; NR supplementation", "value": "more than 8 days"}, {"measurement": "plateau of blood NAD^+ levels", "setting": "blood NAD^+ levels; after 8 days of precursor intake, 1200 mg daily", "value": "did not plateau after 8 days"}, {"measurement": "NAD-related metabolites in blood (PBMC), muscle and CSF", "setting": "NAD metabolome; 30 days, metabolomics", "value": "highly significant (p<<0.001 for all tests) increases in the acid form of NAD (NAAD), and nicotinamide (Nam) degradation products; also recorded: highly significant increase in NAD-related metabolites in blood, muscle and CSF"}, {"measurement": "RNA-sequencing in blood and muscle biopsy", "setting": "NAD metabolome; NR group", "value": "highly significant (FDR<10^−8) upregulation of the mitochondrial, proteasomal and lysosomal pathways"}, {"measurement": "inflammatory cytokines in the central nervous system", "setting": "NAD metabolome; Phase I study", "value": "downregulates multiple inflammatory cytokines in the central nervous system"}]}
